Blank lines part the entries; values can stand above or below the molecule they belong to.
Assays:
[1] = target: T1, HPSE (Homo sapiens, UniProt Q9Y251); assay: HPSE inhibitor study (ELISA-based HPSE activity assay with labeled rhSynd4); type: biochemical; conditions: 10 ng HPSE, 50 mM NaAc pH 4.0, 37° C. for two hours, OD 450
T1 construct: purchased Bio-Techne
T1 sequence (Q9Y251 158-543 limits assumed): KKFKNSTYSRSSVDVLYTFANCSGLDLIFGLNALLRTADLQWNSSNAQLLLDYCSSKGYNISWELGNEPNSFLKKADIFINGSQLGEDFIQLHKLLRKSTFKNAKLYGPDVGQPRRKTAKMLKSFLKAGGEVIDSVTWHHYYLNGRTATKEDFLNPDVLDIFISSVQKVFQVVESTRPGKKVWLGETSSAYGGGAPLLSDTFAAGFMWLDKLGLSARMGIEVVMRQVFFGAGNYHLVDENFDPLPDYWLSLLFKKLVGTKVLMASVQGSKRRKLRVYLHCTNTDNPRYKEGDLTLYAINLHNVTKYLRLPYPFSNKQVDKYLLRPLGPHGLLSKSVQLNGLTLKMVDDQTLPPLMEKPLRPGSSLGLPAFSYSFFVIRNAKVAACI
T1 sequence (Q9Y251 36-109 limits assumed): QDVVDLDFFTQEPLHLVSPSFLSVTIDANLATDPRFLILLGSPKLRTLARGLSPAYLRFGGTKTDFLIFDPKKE
Method: In order to prepare the sample for the assay, the goat anti-human Syndecan-4 capture antibody was diluted to a working concentration in PBS without carrier protein. A 96-well microplate was immediately coated with 100 μL per well of the diluted capture antibody. The plate was sealed and incubated overnight at room temperature. Each well was subsequently aspirated and washed with wash buffer, repeating the process two times for a total of three washes. The wash buffer is 25 mM Tris (pH 7.6), 137 mM NaCl, and 0.01% Tween (TBST). Each well was washed by filling each well with 400 μL of wash buffer using a squirt bottle, manifold dispenser, or autowasher. After the last wash, any remaining wash buffer was removed by aspirating or by inverting the plate and blotting it against clean paper towels. The microplate was then blocked by adding 300 μL of reagent diluent to each well and incubating the microplate for a minimum of 1 hour. The microplate was then aspirated/washed as described above for a total of three washes, and the microplate was thus ready for sample addition.
To perform the ELISA assay, 100 μL of the HPSE treated mixture diluted with 1% BSA in PBS buffer were added per well. The HPSE treated mixture was diluted such that the concentration of rhSynd4 was 25 ng/ml. […]
The absorbance (OD 450) for each of the three compounds was determined using a microplate reader set to 450 nm. […]

[2] = target: goat anti-human lumican capture antibody; assay: ELISA detection of KS non-reducing end labeled recombinant lumican; type: binding; conditions: 0-100 ng labeled lumican, 80 ng/well capture antibody, OD 450
Method: This study confirmed that the endoglycosidase activity assay of this disclosure is applicable to other endoglycosidases in addition to HPSE. An ELISA assay was first used to detect labeled recombinant lumican. The non-reducing ends of KS chains on recombinant human lumican were labeled through in vitro incorporation of GlcNAz by B3GNT2 (a KS specific GlcNAc transferase) according to the procedure described in Example 2 above. Increasing amounts of the labeled lumican (0-100 ng) were subsequently immobilized on a 96-well plate coated with 80 ng/well of goat anti-human lumican capture antibody. A DuoSet ELISA kit of Human Lumican was used to perform an ELISA assay similarly to the procedure described in Example 4 above. The absorbance (OD 450) of each well was determined using a microplate reader set to 450 nm. FIG. 8 is a graph of the OD 450 of increasing amounts of labeled lumican. The data was fit to the equation y=Cx/(Kd+x) to obtain curve 802, where Kd is the ligand-receptor binding affinity (dissociation constant for lumican bound to the capture antibody).

[3] = target: goat anti-human Syndecan-4 capture antibody; assay: ELISA detection of HS non-reducing end labeled rhSynd4; type: binding; conditions: 0-50 ng labeled rhSynd4, 80 ng/well capture antibody, OD 450, fit y=Cx/(Kd+x)
Method: In order to establish a high throughput compatible method for HS detection, an ELISA assay was used to attempt to detect labeled rhSynd4. The non-reducing ends of HS chains on rhSynd4 were labeled according to Example 2 above. Increasing amounts of the labeled rhSynd4 (0-50 ng) were subsequently immobilized on a 96-well plate coated with 80 ng/well of goat anti-human Syndecan-4 capture antibody. The Syndecan-4 DuoSet kit was used to perform an ELISA assay (described in detail in Example 4 below). The absorbance (OD 450) of each well was determined using a microplate reader set to 450 nanometers (nm).
FIG. 4 is a graph of the OD 450 of increasing amounts of labeled rhSynd4. The data was fit to the equation y=Cx/(Kd+x) to obtain curve 402, where Kd is the ligand-receptor binding affinity (dissociation constant for rhSynd4 bound to the capture antibody).

Molecule: chondroitin sulfate
EC50 [1]: 0.39 µg/mL

B1: labeled rhSynd4: recombinant human Syndecan-4 with HS non-reducing ends labeled with GlcNAz and biotin by click chemistry (protein, UniProt P31431 19-198, looked up)
Syndecan-4: ESIRETEVIDPQDLLEGRYFSGALPDDEDVVGPGQESDDFELSGSGDLDDLEDSMIGPEVVHPLVPLDNHIPERAGSGSQVPTEPKKLEENEVIPKRISPVEESEDVSNKVSMSSTVQGSNIFERTEVLAALIVGGIVGILFAVFLILLLMYRMKKKDEGSYDLGKKPIYKKAPTNEFYA
modifications: HS ends labeled GlcNAz and biotin
notes: recombinant human Syndecan-4 with HS non-reducing ends labeled with GlcNAz and biotin by click chemistry
Kd (dissociation constant for rhSynd4 bound to the capture antibody) [3]: 3.4 ng

Now from value to molecule:

EC50 [1]: 0.12 µg/mL
Molecule: heparin

Kd (dissociation constant for lumican bound to the capture antibody) [2]: 7.58 ng
Molecule: labeled lumican: recombinant human lumican with KS non-reducing ends labeled with GlcNAz by B3GNT2

— patent publication US10890586B2, “Methods and kits for assaying endoglycosidase activity” (Bio-Techne Corporation, priority 2016, dated 2021)
